This is an account of results in PubChem BioAssay (NCI).

Test systems include BT-549 breast; DU-145 prostate; HCC-2998 colon; KM12 colon; MALME-3M melanoma; NCI-H23 lung; NCI-H522 lung; OVCAR-4 ovarian; SF-295 CNS; UACC-257 melanoma.
What all share (experiment): NCI anticancer screen, dose series, 48 h

Molecules are shown by their SMILES. Values joined by “and” are separate entries in the source; they are usually repeats but may differ in a detail not shown here. Equal entries are not always repeated.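 Following 48 hours of exposure in 96-well plates, responses at five concentrations were used to interpolate endpoints linearly. Abbreviation: GI50, concentration required for 50% inhibition of growth. Definition used: TGI = concentration required for complete inhibition of growth.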

For the compound `COC12C=C/C(=C(/C(=O)OCc3ccccn3)C(=O)CCCCCCCCC3(OC)C=C/C(=C(/C(=O)OCc4ccccn4)C(=O)CCCCCCCC1)O3)O2`, the GI50 in the assay with BT-549 breast is 401 nM; with DU-145 prostate, 564 nM; in the assay with HCC-2998 colon it was 212 nM; with KM12 colon it was 354 nM; with MALME-3M melanoma it was 325 nM; in the assay on NCI-H23 lung it was 249 nM. Moreover, the GI50 was 345 nM in the assay on NCI-H522 lung, 332 nM with OVCAR-4 ovarian, 397 nM in the assay on SF-295 CNS and 1050 nM in the assay on UACC-257 melanoma. Besides, the TGI in the assay with BT-549 breast was found to be 2070 nM; with DU-145 prostate it was 1870 nM; in the assay with HCC-2998 colon, 518 nM; in the assay on KM12 colon it was 1390 nM; in the assay with MALME-3M melanoma, 1380 nM; with NCI-H23 lung, 689 nM. For the same compound, the TGI worked out at 1710 nM with NCI-H522 lung, 2280 nM with OVCAR-4 ovarian, 2150 nM with SF-295 CNS and 4270 nM in the assay on UACC-257 melanoma.
On to `Nc1ccc(C(=O)N/C(=C\c2cccc([N+](=O)[O-])c2)c2nc3[nH]c(=S)[nH]c(=O)c3[nH]2)cc1`, for which the TGI with BT-549 breast, with DU-145 prostate, in the assay with HCC-2998 colon, with KM12 colon, with MALME-3M melanoma and in the assay with NCI-H23 lung was above 100000 nM in each case. In addition, the TGI in the assay with NCI-H522 lung was above 100000 nM; in the assay on OVCAR-4 ovarian it was above 100000 nM; in the assay with SF-295 CNS, above 96700 nM; with UACC-257 melanoma it was above 100000 nM.
On to `COc1ccc2c(c1)c(-c1nc(-c3c[nH]c4ccncc34)cs1)cn2C`, for which the GI50 is 1810 nM in the assay with BT-549 breast; 1750 nM with DU-145 prostate; 1850 nM in the assay with HCC-2998 colon; 1730 nM in the assay on KM12 colon; 1740 nM in the assay on MALME-3M melanoma; 1820 nM in the assay on NCI-H23 lung. The GI50 was 1650 nM with NCI-H522 lung, 1890 nM in the assay on OVCAR-4 ovarian, 1690 nM in the assay on SF-295 CNS and 1680 nM in the assay on UACC-257 melanoma. Besides, the TGI with BT-549 breast is 3450 nM; in the assay with DU-145 prostate, 3250 nM; with HCC-2998 colon it was 3350 nM; in the assay with KM12 colon it was 3200 nM; in the assay with MALME-3M melanoma it was 3280 nM; in the assay with NCI-H23 lung, 3390 nM. Further, the TGI is 3250 nM with NCI-H522 lung, 3710 nM in the assay on OVCAR-4 ovarian, 3130 nM with SF-295 CNS and 3090 nM with UACC-257 melanoma.
Turning to `C=C/C=C/[C@@H](O)CC(=C)C[C@H]1OC2[C@H](C)[C@@H](OC(=O)C[C@H]3C[C@H](OC(C)=O)C[C@@]4(C[C@@](C)(O)C[C@H](CC(=C)[C@@H](C)[C@H](OC(C)=O)[C@H](C)C(=O)C[C@@H]5C[C@H](OC)CC6(C[C@@H](O)C[C@H](/C=C\CCC[C@H]7O[C@](O)(C=C[C@H]7C)[C@H]2O)O6)O5)O4)O3)[C@@H]1O`, the GI50 with BT-549 breast was 2.5 nM; in the assay with DU-145 prostate, 1.2 nM and 2.5 nM; in the assay with HCC-2998 colon, 0.591 nM and < 2.5 nM; in the assay with KM12 colon, 0.327 nM and 2.5 nM; in the assay on MALME-3M melanoma, 2.5 nM; in the assay on NCI-H23 lung, 0.475 nM and < 2.5 nM. The GI50 in the assay with NCI-H522 lung is 0.825 nM and < 2.5 nM; with OVCAR-4 ovarian, 0.835 nM and 2.5 nM; in the assay with SF-295 CNS, 0.492 nM and < 2.5 nM; with UACC-257 melanoma it was 2.48 nM. Moreover, the TGI in the assay on BT-549 breast is above 25000 nM; with HCC-2998 colon, 2.72 nM and < 2.5 nM; in the assay on NCI-H23 lung it was below 2.5 nM; in the assay on NCI-H522 lung it was below 2.5 nM; in the assay with OVCAR-4 ovarian it was above 25000 nM; in the assay with SF-295 CNS, 2.9 nM and < 2.5 nM. The TGI in the assay with UACC-257 melanoma was above 25000 nM.
With `CCC(C)[C@H](NC(=O)Nc1cc(C(F)(F)F)cc(C(F)(F)F)c1)C(=O)N[C@@H](Cc1cn(C)cn1)C(=O)OC` (stereo partly specified), the GI50 with BT-549 breast was 698 nM; with DU-145 prostate, 1070 nM; with HCC-2998 colon it was 696 nM; in the assay with KM12 colon, 788 nM; in the assay with MALME-3M melanoma, 1410 nM; in the assay on NCI-H23 lung it was 6150 nM. Moreover, the GI50 with NCI-H522 lung was 584 nM; in the assay on OVCAR-4 ovarian, 599 nM; with SF-295 CNS, 1360 nM; in the assay on UACC-257 melanoma it was 1300 nM. Besides, the TGI came out at 1680 nM in the assay with BT-549 breast; 1830 nM in the assay with DU-145 prostate; 1350 nM in the assay with HCC-2998 colon; 1830 nM in the assay on KM12 colon; 2010 nM with MALME-3M melanoma; 1150 nM in the assay on NCI-H522 lung. Further, the TGI was determined as 1120 nM with OVCAR-4 ovarian, 1950 nM in the assay with SF-295 CNS and 1850 nM in the assay with UACC-257 melanoma.
`NC(=O)c1cc([N+](=O)[O-])c(Cl)c([N+](=O)[O-])c1Cl`: the GI50 was 3410 nM with BT-549 breast; 1550 nM in the assay with DU-145 prostate; 1820 nM in the assay on HCC-2998 colon; 1610 nM in the assay with KM12 colon; 1740 nM in the assay on MALME-3M melanoma; 1960 nM in the assay on NCI-H23 lung. Also, the GI50 with NCI-H522 lung was 162 nM; in the assay with OVCAR-4 ovarian it was 1770 nM; with SF-295 CNS it was 3290 nM; in the assay with UACC-257 melanoma, 1130 nM. Also, the TGI with BT-549 breast came to 12600 nM; with DU-145 prostate, 2880 nM; in the assay with HCC-2998 colon, 3450 nM; in the assay on KM12 colon it was 3020 nM; with MALME-3M melanoma it was 4520 nM; with NCI-H23 lung, 4250 nM. Further, the TGI in the assay on NCI-H522 lung was 319 nM; in the assay on OVCAR-4 ovarian it was 3190 nM; with SF-295 CNS, 12100 nM; in the assay with UACC-257 melanoma, 2380 nM.
As to `CC1(C)CNc2cc(NC(=O)c3cccnc3NCc3ccncc3)ccc21`, the GI50 with BT-549 breast was 25200 nM; in the assay with DU-145 prostate it was 23000 nM; with HCC-2998 colon, 39000 nM; with KM12 colon it was 38000 nM; in the assay on MALME-3M melanoma, 15900 nM; in the assay with NCI-H23 lung it was 27600 nM. Besides, the GI50 was 25700 nM in the assay with NCI-H522 lung, 18000 nM with OVCAR-4 ovarian, 24200 nM in the assay on SF-295 CNS and 28800 nM in the assay with UACC-257 melanoma. In addition, the TGI in the assay with BT-549 breast was 98200 nM; in the assay on DU-145 prostate, above 100000 nM; in the assay on HCC-2998 colon it was above 100000 nM; in the assay on KM12 colon it was above 100000 nM; with MALME-3M melanoma, 84900 nM; in the assay on NCI-H23 lung, above 100000 nM. The TGI in the assay with NCI-H522 lung is above 95400 nM; in the assay on OVCAR-4 ovarian, above 100000 nM; with SF-295 CNS, above 100000 nM; in the assay on UACC-257 melanoma it was 98200 nM.
Consider `NCCCC[C@@H]1NC(=O)[C@H](CC(=O)O)NC(=O)CNC(=O)[C@H](CCCN=C(N)N)NC(=O)[C@@H](N)CSSC[C@@H](C(=O)O)NC(=O)[C@H](CC(=O)O)NC(=O)[C@@H]2CCCN2C(=O)CNC1=O`, for which the GI50 with BT-549 breast, in the assay on DU-145 prostate, in the assay with HCC-2998 colon, in the assay with KM12 colon, in the assay with MALME-3M melanoma and with NCI-H23 lung was above 100000 nM throughout. For the same compound, the GI50 in the assay with NCI-H522 lung, in the assay with OVCAR-4 ovarian, in the assay on SF-295 CNS and with UACC-257 melanoma was above 100000 nM each time. The TGI with BT-549 breast, with DU-145 prostate, with HCC-2998 colon, with KM12 colon, in the assay on MALME-3M melanoma and in the assay with NCI-H23 lung was above 100000 nM each time. In addition, the TGI with NCI-H522 lung, in the assay on OVCAR-4 ovarian, in the assay on SF-295 CNS and in the assay with UACC-257 melanoma was above 100000 nM each time.
